Test results from publication PMC3646888 (PLoS ONE, 2013).

Experiments:
Assay type in all cases: in vitro ADME
CYP2C6 = molecular target: T1, CYP2C6 (Rattus norvegicus, UniProt P05178); test: Fluorescence-based CYP assay, recombinant CYP2C6, substrate EFC
T1 sequence (P05178 1-490): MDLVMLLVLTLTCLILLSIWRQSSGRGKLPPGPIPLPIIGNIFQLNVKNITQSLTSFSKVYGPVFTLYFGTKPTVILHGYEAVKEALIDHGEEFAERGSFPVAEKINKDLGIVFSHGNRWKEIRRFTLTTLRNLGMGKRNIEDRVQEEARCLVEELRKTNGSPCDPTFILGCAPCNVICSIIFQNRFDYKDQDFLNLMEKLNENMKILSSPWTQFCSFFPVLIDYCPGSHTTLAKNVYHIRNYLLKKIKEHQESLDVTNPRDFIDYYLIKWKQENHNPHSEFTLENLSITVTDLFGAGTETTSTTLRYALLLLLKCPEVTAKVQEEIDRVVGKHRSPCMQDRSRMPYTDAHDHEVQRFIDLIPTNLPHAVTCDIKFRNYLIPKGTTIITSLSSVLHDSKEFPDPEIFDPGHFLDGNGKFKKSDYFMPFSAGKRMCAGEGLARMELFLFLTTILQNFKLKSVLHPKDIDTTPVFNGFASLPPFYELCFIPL
Protocol: (§1) These assays were performed by methods similar to those described by VanAlstine and Hough, Stresser et al., Wulff et al., Henderson et al., and Crespi et al., with minor modifications. All incubations were performed in a final volume of 200 µL of 50 mM potassium phosphate buffer at pH 7.4 containing 1% acetonitrile. CYP inhibitor studies were performed according to the parameters of Table 1. Substrate concentrations were chosen to be near known Km values. As described in the references cited, two different NADPH regenerating systems were used depending on the substrates used (Table 1). Inhibitors were added to either “low” NADPH-regenerating system (final concentration of 8.1 µM NADP^+, 0.4 mM glucose-6-phosphate, 0.4 mM magnesium chloride, 0.2 U/mL glucose-6-phosphate dehydrogenase) or to “high” NADPH-regenerating system (final concentration of 1.3 mM NADP^+, 3.3 mM glucose-6-phosphate, 3.3 mM magnesium chloride, 0.4 U/mL glucose-6-phosphate dehydrogenase) in a total of 0.1 mL buffer. […] For assays utilizing “low” regenerating systems, product formation was monitored continuously by a Victor3 1420 Multilabel Plate Counter at the designated wavelengths (Table 1). […] Product formation was then measured at the designated wavelengths (Table 1). […]

CYP2C19 = CYP2C19 (Homo sapiens, UniProt P33261); test: Fluorescence-based CYP assay, recombinant CYP2C19, substrate DBF
Chain of CYP2C19 (P33261 whole entry): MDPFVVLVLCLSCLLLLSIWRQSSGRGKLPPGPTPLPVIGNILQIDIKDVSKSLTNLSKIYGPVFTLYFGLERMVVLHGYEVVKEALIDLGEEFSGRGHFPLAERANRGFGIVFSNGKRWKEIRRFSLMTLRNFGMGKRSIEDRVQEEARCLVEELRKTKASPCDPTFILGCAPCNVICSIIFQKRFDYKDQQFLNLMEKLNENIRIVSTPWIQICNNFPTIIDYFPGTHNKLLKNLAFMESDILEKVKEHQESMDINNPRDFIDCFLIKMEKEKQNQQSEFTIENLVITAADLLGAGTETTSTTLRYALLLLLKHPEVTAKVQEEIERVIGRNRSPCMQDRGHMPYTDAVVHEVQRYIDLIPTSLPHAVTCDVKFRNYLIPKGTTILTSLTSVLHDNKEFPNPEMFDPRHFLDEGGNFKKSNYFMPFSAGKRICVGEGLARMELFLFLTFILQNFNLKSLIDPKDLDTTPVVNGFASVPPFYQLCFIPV
Protocol: as §1

CYP2B1 = molecular target: T2, CYP2B1 (Rattus norvegicus, UniProt P00176); test: Fluorescence-based CYP assay, recombinant CYP2B1, substrate EFC
T2 sequence (P00176 1-491): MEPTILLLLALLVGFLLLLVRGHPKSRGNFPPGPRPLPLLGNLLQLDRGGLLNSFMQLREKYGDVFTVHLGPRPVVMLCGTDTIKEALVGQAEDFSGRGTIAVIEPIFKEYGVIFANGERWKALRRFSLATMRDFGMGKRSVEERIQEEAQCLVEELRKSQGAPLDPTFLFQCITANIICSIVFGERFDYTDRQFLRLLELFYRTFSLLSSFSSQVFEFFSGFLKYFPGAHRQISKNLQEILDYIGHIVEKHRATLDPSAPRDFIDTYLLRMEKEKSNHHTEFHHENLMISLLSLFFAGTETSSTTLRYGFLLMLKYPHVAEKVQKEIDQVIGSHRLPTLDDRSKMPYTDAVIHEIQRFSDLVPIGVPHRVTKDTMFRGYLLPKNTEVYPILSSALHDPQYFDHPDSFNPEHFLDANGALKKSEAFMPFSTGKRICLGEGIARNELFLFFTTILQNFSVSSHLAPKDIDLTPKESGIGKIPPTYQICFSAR
Protocol: as §1

CYP2C11 = molecular target: T3, CYP2C11 (Rattus norvegicus, UniProt P08683); test: Fluorescence-based CYP assay, recombinant CYP2C11, substrate DBF
T3 sequence (P08683 1-500): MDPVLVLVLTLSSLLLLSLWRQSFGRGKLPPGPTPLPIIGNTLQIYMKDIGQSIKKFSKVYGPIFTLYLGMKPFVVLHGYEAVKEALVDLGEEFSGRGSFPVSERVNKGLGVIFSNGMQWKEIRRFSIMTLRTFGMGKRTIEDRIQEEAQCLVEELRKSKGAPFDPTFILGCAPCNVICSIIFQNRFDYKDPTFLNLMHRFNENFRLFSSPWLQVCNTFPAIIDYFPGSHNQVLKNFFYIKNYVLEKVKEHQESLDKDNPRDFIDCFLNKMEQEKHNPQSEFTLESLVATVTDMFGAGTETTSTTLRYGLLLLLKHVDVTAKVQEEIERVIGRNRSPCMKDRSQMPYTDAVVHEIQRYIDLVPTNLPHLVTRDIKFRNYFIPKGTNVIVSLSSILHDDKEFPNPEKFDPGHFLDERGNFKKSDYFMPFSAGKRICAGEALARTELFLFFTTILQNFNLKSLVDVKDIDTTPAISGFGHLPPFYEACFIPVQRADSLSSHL
Protocol: as §1

| SMILES | IC50 (CYP2C6; recombinant rat CYP2C6, EFC 5 µM) [nM] | IC50 (CYP2C19) [nM] | IC50 (CYP2B1) [nM] | IC50 (CYP2C11) [nM] | Inhibition of CYP2C6 (in words) (CYP2C6; positive control) | Inhibition of CYP2C19 (in words) (CYP2C19; recombinant enzyme) | Inhibition of CYP2B1 (in words) (CYP2B1; positive control) | Inhibition of CYP2C11 (in words) (CYP2C11; positive control) |
| --- | --- | --- | --- | --- | --- | --- | --- | --- |
| Clc1ccccc1C(c1ccccc1)(c1ccccc1)n1cccn1 [TRAM-34, 1-[(2-chlorophenyl)diphenylmethyl]-1H-pyrazole] | 2900 | 1800 | 3000 | 12600 |  |  |  |  |
| Clc1ccccc1C(c1ccccc1)(c1ccccc1)n1ccnc1 [Clotrimazole] |  |  |  |  | potent inhibitor | potent inhibitor | potent inhibitor | potent inhibitor |
